Results as given in ChEMBL document CHEMBL1201862, “PubChem BioAssay data set” (2004).
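Step 1: Grow cells in 96-well plates. Step 2: Expose to compound for 48 hours at 5 concentrations. Step 3: Interpolate endpoints linearly; if unreached, use highest concentration. GI50: concentration for 50% inhibition of growth.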 Calls of active or inactive are those of the source. Rule as the data show it: active = GI50 up to about 1.1 µM and inactive = higher.

Experiments:
Experiment in all cases: inhibition of tumour cell growth, NCI panel, 48 h
CAKI-1 = system: CAKI-1
CCRF-CEM = system: CCRF-CEM
COLO 205 = system: COLO 205
EKVX = system: EKVX
HL-60 = system: HL-60
HOP-92 = system: HOP-92
Hs-578T = system: Hs-578T
IGROV-1 = system: IGROV-1
LOX IMVI = system: LOX IMVI
MOLT-4 = system: MOLT-4
NCI-H460 = system: NCI-H460
NCI-H522 = system: NCI-H522
NCI/ADR-RES = system: NCI/ADR-RES
OVCAR-8 = system: OVCAR-8
SF-268 = system: SF-268
SK-MEL-28 = system: SK-MEL-28
SNB-75 = system: SNB-75
TK-10 = system: TK-10
OVCAR-3 = system: OVCAR-3
SK-OV-3 = system: SK-OV-3

| SMILES | GI50 (CAKI-1) | GI50 (CCRF-CEM) | GI50 (COLO 205) | GI50 (EKVX) | GI50 (HL-60) | GI50 (HOP-92) | GI50 (Hs-578T) | GI50 (IGROV-1) | GI50 (LOX IMVI) | GI50 (MOLT-4) | GI50 (NCI-H460) | GI50 (NCI-H522) | GI50 (NCI/ADR-RES) | GI50 (OVCAR-8) | GI50 (SF-268) | GI50 (SK-MEL-28) | GI50 (SNB-75) | GI50 (TK-10) | GI50 (OVCAR-3) | GI50 (SK-OV-3) |
| --- | --- | --- | --- | --- | --- | --- | --- | --- | --- | --- | --- | --- | --- | --- | --- | --- | --- | --- | --- | --- |
| COc1cccc(/C=C/C2=NN(c3cccc(S(=O)(=O)O)c3)C3(C2)SCC(=O)N3c2nc3ccccc3s2)c1 (configuration not stated) | 50.9 µM (inactive) | 30.8 µM (inactive) | > 100 µM (inactive) | 69.2 µM (inactive) | 26.7 µM (inactive) | 94.6 µM (inactive) | 32.7 µM (inactive) | 36.7 µM (inactive) | 21.1 µM (inactive) | 28.2 µM (inactive) | 35.7 µM (inactive) | 14.7 µM (inactive) | 53.3 µM (inactive) | 40.7 µM (inactive) | 33.3 µM (inactive) | > 100 µM (inactive) | 74.6 µM (inactive) | 28.8 µM (inactive) | – | – |
| CCCCCCN1CCc2c(C)c(C#N)c3nc4ccccc4n3c21 | – | – | 29.9 µM (inactive) | – | 11.7 µM (inactive) | 22.5 µM (inactive) | 8.73 µM (inactive) | > 100 µM (inactive) | 22.2 µM (inactive) | – | 16 µM (inactive) | 31.4 µM (inactive) | > 100 µM (inactive) | 29.2 µM (inactive) | > 100 µM (inactive) | 33.7 µM (inactive) | 32.4 µM (inactive) | > 100 µM (inactive) | 11.6 µM (inactive) | > 100 µM (inactive) |
| C[n+]1c2ccccc2n2c3ccccc3c(NCCCN3CCOCC3)c(C#N)c21 | 2.45 µM (inactive) | 8.17 µM (inactive) | 0.891 µM (active) | 2.9 µM (inactive) | 8.13 µM (inactive) | 62.8 µM (inactive) | 1.41 µM (inactive) | – | 0.839 µM (active) | 0.498 µM (active) | 0.684 µM (active) | 0.652 µM (active) | > 41.4 µM (inactive) | 0.843 µM (active) | 1.11 µM (active) | 3.32 µM (inactive) | 2.23 µM (inactive) | 1.58 µM (inactive) | 2.61 µM (inactive) | 2.5 µM (inactive) |
| Cc1c(C(=O)c2ccccc2)[n+]([O-])c2cc(Cl)c(Cl)cc2[n+]1[O-] | 3.03 µM (inactive) | 19.3 µM (inactive) | 18.1 µM (inactive) | 13.5 µM (inactive) | 2.04 µM (inactive) | 2.96 µM (inactive) | 6.34 µM (inactive) | 1.97 µM (inactive) | 3.72 µM (inactive) | 2.73 µM (inactive) | 15.9 µM (inactive) | – | 17.9 µM (inactive) | 10 µM (inactive) | 15.3 µM (inactive) | 14.7 µM (inactive) | 0.0368 µM (active) | 11.5 µM (inactive) | 12.4 µM (inactive) | 19.6 µM (inactive) |
| O=Cc1c2c(cc3c1CC1(C3)Cc3cc4c(c(C=O)c3C1)CCC4)CCC2 | – | 17 µM (inactive) | 27.2 µM (inactive) | 47.3 µM (inactive) | 27.5 µM (inactive) | 23 µM (inactive) | 23.1 µM (inactive) | 17 µM (inactive) | 21.8 µM (inactive) | 11.3 µM (inactive) | – | 24.9 µM (inactive) | 68.2 µM (inactive) | 47.3 µM (inactive) | – | – | – | 32.5 µM (inactive) | 24.1 µM (inactive) | 36.1 µM (inactive) |
| CC1=C(O)C(=O)C[C@]2(C)[C@H]3CC=C4[C@@H]5CC(C)(C)CC[C@@H]5C(=O)[C@H](O)[C@@]4(C)[C@]3(C)CC[C@@H]12 | > 50 µM (inactive) | > 50 µM (inactive) | > 50 µM (inactive) | > 50 µM (inactive) | > 50 µM (inactive) | 7.36 µM (inactive) | 25.1 µM (inactive) | 21.8 µM (inactive) | – | > 50 µM (inactive) | > 50 µM (inactive) | 16.6 µM (inactive) | > 50 µM (inactive) | 22.6 µM (inactive) | > 50 µM (inactive) | > 50 µM (inactive) | 17.3 µM (inactive) | 23.9 µM (inactive) | > 50 µM (inactive) | > 50 µM (inactive) |
| Cc1cc(=O)oc2cc(OS(C)(=O)=O)ccc12 | > 100 µM (inactive) | > 100 µM (inactive) | > 100 µM (inactive) | > 100 µM (inactive) | > 100 µM (inactive) | > 100 µM (inactive) | > 100 µM (inactive) | > 100 µM (inactive) | > 100 µM (inactive) | – | > 100 µM (inactive) | > 100 µM (inactive) | > 100 µM (inactive) | > 100 µM (inactive) | > 100 µM (inactive) | > 100 µM (inactive) | > 100 µM (inactive) | > 100 µM (inactive) | > 100 µM (inactive) | – |
| CCOc1ccc2c(C)cc(=O)oc2c1 | > 100 µM (inactive) | > 100 µM (inactive) | > 100 µM (inactive) | > 100 µM (inactive) | > 100 µM (inactive) | > 100 µM (inactive) | > 100 µM (inactive) | > 100 µM (inactive) | > 100 µM (inactive) | > 100 µM (inactive) | > 100 µM (inactive) | > 100 µM (inactive) | > 100 µM (inactive) | > 100 µM (inactive) | > 100 µM (inactive) | > 100 µM (inactive) | > 100 µM (inactive) | – | > 100 µM (inactive) | – |
| COc1cc(Cl)c(CC(=O)c2c[nH]c3ccccc23)cc1OC | > 36.1 µM (inactive) | > 34.6 µM (inactive) | > 100 µM (inactive) | 18.7 µM (inactive) | > 37.2 µM (inactive) | 5.36 µM (inactive) | 23.6 µM (inactive) | 32.4 µM (inactive) | > 100 µM (inactive) | > 100 µM (inactive) | > 100 µM (inactive) | – | > 81.7 µM (inactive) | 8.55 µM (inactive) | 13.7 µM (inactive) | > 100 µM (inactive) | 8.93 µM (inactive) | 16.9 µM (inactive) | > 51.9 µM (inactive) | 8.07 µM (inactive) |
| CC(=O)Nc1ccc2c(C(=O)O)c(C)c(O)nc2n1 | > 100 µM (inactive) | > 10 µM (inactive) | > 100 µM (inactive) | > 100 µM (inactive) | > 100 µM (inactive) | 5.27 µM (inactive) | > 100 µM (inactive) | > 100 µM (inactive) | – | 51.3 µM (inactive) | > 100 µM (inactive) | 32.5 µM (inactive) | > 100 µM (inactive) | 83.4 µM (inactive) | 57.7 µM (inactive) | – | – | > 100 µM (inactive) | – | > 100 µM (inactive) |
| N=C(N)N/N=C/c1c(-c2cc([N+](=O)[O-])c(Cl)cc2Cl)nc2n1CCS2 | 40 µM (inactive) | 2.84 µM (inactive) | 2.66 µM (inactive) | 40.9 µM (inactive) | 5.08 µM (inactive) | 20.7 µM (inactive) | 27.9 µM (inactive) | 16.4 µM (inactive) | 6.35 µM (inactive) | 6.79 µM (inactive) | 27.6 µM (inactive) | 17 µM (inactive) | > 100 µM (inactive) | 26.5 µM (inactive) | 9.93 µM (inactive) | 5.16 µM (inactive) | – | 15.5 µM (inactive) | 8.04 µM (inactive) | – |
| COc1ccc2cc3c4cc5c(cc4cc[n+]3cc2c1OC)OCO5 | – | 6.43 µM (inactive) | 2.08 µM (inactive) | 6.22 µM (inactive) | 19.2 µM (inactive) | 18.1 µM (inactive) | 3.26 µM (inactive) | 8.11 µM (inactive) | 28.4 µM (inactive) | 8.53 µM (inactive) | 17.9 µM (inactive) | 3.63 µM (inactive) | > 100 µM (inactive) | 2.37 µM (inactive) | 2.94 µM (inactive) | 5.33 µM (inactive) | 27.8 µM (inactive) | 19.9 µM (inactive) | 3.87 µM (inactive) | 29.4 µM (inactive) |
| CCOC(=O)C1=C(N2CCCC2)NC(=O)CC1=O | > 100 µM (inactive) | > 100 µM (inactive) | > 100 µM (inactive) | > 100 µM (inactive) | > 100 µM (inactive) | > 100 µM (inactive) | > 100 µM (inactive) | > 100 µM (inactive) | > 100 µM (inactive) | > 100 µM (inactive) | – | > 100 µM (inactive) | > 100 µM (inactive) | > 100 µM (inactive) | > 100 µM (inactive) | > 100 µM (inactive) | – | > 100 µM (inactive) | > 100 µM (inactive) | > 100 µM (inactive) |
| CN(C(=O)Cc1cc(Cl)c(Cl)cc1NC(=O)CN)[C@H]1CCCC[C@@H]1N1CCCC1 | > 100 µM (inactive) | 27.5 µM (inactive) | – | > 100 µM (inactive) | 19.1 µM (inactive) | > 100 µM (inactive) | 23.1 µM (inactive) | > 100 µM (inactive) | 18.3 µM (inactive) | > 100 µM (inactive) | 29.6 µM (inactive) | – | > 100 µM (inactive) | 88.3 µM (inactive) | 77.1 µM (inactive) | – | 20.7 µM (inactive) | 37.9 µM (inactive) | 38.8 µM (inactive) | > 100 µM (inactive) |
| COc1ccccc1N1C(=O)/C(=C\c2cc(OC)c(OC)c(OC)c2)SC1c1ccccc1 (configuration not stated) | > 100 µM (inactive) | 6.76 µM (inactive) | 24.1 µM (inactive) | 13.2 µM (inactive) | 26.2 µM (inactive) | 22.7 µM (inactive) | 24 µM (inactive) | – | 26.9 µM (inactive) | 9.95 µM (inactive) | 51.5 µM (inactive) | 13.7 µM (inactive) | 43 µM (inactive) | 42 µM (inactive) | 31.6 µM (inactive) | 45.4 µM (inactive) | – | 53.3 µM (inactive) | 37.5 µM (inactive) | 21.4 µM (inactive) |
